# Target: TDP-43 1-260 (Homo sapiens, UniProt Q13148)
# Assay: TDP-43 alpha-screen assay with bt-TAR32
# Type: binding
# Conditions: bt-TAR32 0.125 nM; 3 h at room temperature; read-out: Activity (μM) in the TDP-43-DNA alpha-screen assay
# Method: Alpha-screen assay. […] Briefly, assays contained TDP-43 1-260 (15 ng/mL, 0.27 nM), 10 mg/mL of both streptavidin donor beads and anti-GST acceptor beads with various concentrations of bt-TAR32 (˜18 to +14 in the HIV1 LTR) and test compound in a final volume of 20 mL of 25 mM Tris, 0.1% CHAPS, pH 7.4 in white, opaque low volume 384-well plates. After 3 h incubation at room temperature, the AlphaScreen signal was measured using a Synergy 2 plate reader (Biotek, Winooski, VT). […] Nonspecific binding was determined in the presence of 10 mM bt-TDP43 and was less than 10% of total binding. IC50 values were obtained from nonlinear regression fits of the data to a one-site binding model using Graph Pad Prism, version 5.0 (GraphPad Software, San Diego, CA). Comparison of competitive inhibition and mixed type inhibition models were evaluated using the F-test on global fits of the data also in Graph Pad Prism, version 5.0.
# Sequence of TDP-43 1-260 (Q13148 1-260): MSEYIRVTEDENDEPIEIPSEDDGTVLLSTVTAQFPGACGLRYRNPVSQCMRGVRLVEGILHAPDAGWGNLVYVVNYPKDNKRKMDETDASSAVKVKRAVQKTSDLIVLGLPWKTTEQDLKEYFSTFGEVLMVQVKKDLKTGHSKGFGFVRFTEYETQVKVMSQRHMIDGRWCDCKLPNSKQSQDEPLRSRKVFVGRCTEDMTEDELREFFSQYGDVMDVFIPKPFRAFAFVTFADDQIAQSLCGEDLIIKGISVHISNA
row,Compound,IC50
1,CN(CCCN)CCCNc1cc(-c2ccc(N3CCNCC3)cc2)nc(-c2ccc(N3CCNCC3)nc2)c1 [Example 4],0.04 µM
2,COc1ccc(-c2cc(NCC3CCCN(C)C3)cc(-c3ccc(N4CCN(C)CC4)cc3)n2)cc1 (stereo not shown) [Example 67],1.17 µM
3,"COc1ccc(-c2cc(NCCCN)cc(-c3ccc(N4CCNCC4)cc3)n2)cc1 [Example 31, N^1-(2-(4-methoxyphenyl)-6-(4-(piperazin-1-yl)phenyl)pyridin-4-yl)propane-1,3-diamine]",0.12 µM
4,"COc1ccc(-c2cc(NCCCN(C)CCCN)cc(-c3ccc(OCCCN(C)C)nc3)n2)cc1 [Example 35, N-{3-[(3-aminopropyl)(methyl)amino]propyl}-6′-[3-(dimethylamino)propoxy]-6-(4-methoxyphenyl)-[2,3′-bipyridin]-4-amine]",0.15 µM
5,"N[C@H]1C[C@H](Nc2cc(-c3ccc(N4CCNCC4)cc3)nc3ccsc23)C1 [Example 85, (1r,3r)-N1-(5-(4-(piperazin-1-yl)phenyl)thieno[3,2-b]pyridin-7-yl)cyclobutane-1,3-diamine]",0.16 µM
6,COc1ccc(-c2cc(NCCCOCCCN)cc(-c3ccc(N4CCNCC4)cc3)n2)cc1 [Example 66],1.2 µM
7,"COc1ccc(-c2cc(NCCCN(C)CCCN)nc(-c3ccc(N4CCNCC4)cc3)n2)cc1 [Example 78, N-{3-[(3-aminopropyl)(methyl)amino]propyl}-6-(4-methoxyphenyl)-2-[4-(piperazin-1-yl)phenyl]pyrimidin-4-amine]",0.2 µM
8,CN1CCN(c2cncc(-c3cc(NCCCN)cc(-c4ccc(N5CCNCC5)cc4)n3)c2)CC1 [Example 45],1.07 µM
9,COc1ccc(-c2cc(NC3CCN(C4CCN(C)CC4)CC3)cc(-c3ccc(N4CCNCC4)cc3)n2)cc1 [Example 36],0.15 µM
10,COc1ccc(-c2cc(NCCCN(C)CCCN)cc(-c3ccc(CN4CCCC4)cc3)n2)cc1 [Example 24],0.09 µM
11,COc1ccc(-c2cc(NCCCN(C)C)cc(-c3ccc(C[C@@H](N)C(=O)O)cc3)n2)cc1 [Example 62],1.85 µM
12,COc1ccc(-c2cc(NCCCN3CCC(CN)C3)cc(-c3ccc(N4CCNCC4)cc3)n2)cc1 (stereo not shown) [Example 26],0.1 µM
13,COc1ccc(-c2cc(NC3CCNCC3)cc(-c3ccc(N4CCNCC4)cc3)n2)cc1 [Example 39],0.19 µM
14,COc1ccc(-c2cc(NCCCc3cnc[nH]3)cc(-c3ccc(N4CCN(C)CC4)cc3)n2)cc1 [Example 48],3.77 µM
15,CN(CCCN)CCCNc1cc(-c2ccc(C3CCNCC3)cc2)nc(-c2ccc(N3CCNCC3)cc2)c1 [Example 8],0.05 µM
16,COc1ccc(-c2cc(NCCCN3CCCCC3)cc(-c3cc(OC)cc(OC)c3)n2)cc1 [Example 46],6.93 µM
17,COc1cccc(-c2cc(NCCCN(C)CCCN)cc(-c3ccc(N4CCNCC4)cc3)n2)c1 [Example 51],0.64 µM
18,COc1ccc(-c2cc(NC3CCN(C4CCC(N)CC4)CC3)cc(-c3ccc(N4CCNCC4)cc3)n2)cc1 (stereo not shown) [Example 3],0.03 µM
19,"COc1ccc(-c2cc(NC3CCN(CC4CNC4)CC3)cc(-c3ccc(N4CCN(C)CC4)cc3)n2)cc1 [Example 12, N-(1-(azetidin-3-ylmethyl)piperidin-4-yl)-2-(4-methoxyphenyl)-6-(4-(4-methylpiperazin-1-yl)phenyl)pyridin-4-amine]",0.06 µM
20,COc1ccc(-c2cc(NCC3CCN(CC4CCNC4)C3)cc(-c3ccc(N4CCN(C)CC4)cc3)n2)cc1 (stereo not shown) [Example 21],0.08 µM

row,Compound,IC50
1,COc1ccc(-c2cc(NCCCN(C)C)cc(-c3ccc(N4CCN(C)CC4)cc3)n2)cc1 [Example 40],0.21 µM
2,CN(CCCN)CCCNc1cc(-c2ccc(-c3ccncc3)cc2)nc(-c2ccc(N3CCNCC3)cc2)c1 [Example 77],0.13 µM
3,COc1ccc(-c2cc(NCCCN(C)C)cc(-c3ccc(N4CCOCC4)cc3)n2)cc1 [Example 59],2.04 µM
4,COc1ccc(-c2cc(NCCCN3CCC(CN)CC3)cc(-c3ccc(N4CCNCC4)cc3)n2)cc1 [Example 18],0.07 µM
5,"COc1ccc(-c2cc(NCCCN(C)CCCN)cc(OCCN3CCCC3)n2)cc1 [Example 37, N-{3-[(3-aminopropyl)(methyl)amino]propyl}-2-(4-methoxyphenyl)-6-[2-(pyrrolidin-1-yl)ethoxy]pyridin-4-amine]",0.16 µM
6,COc1ccc(-c2cc(NCCCN(C)CCCN)cc(-c3ccc(N4CCN(C(=O)OC(C)(C)C)CC4)cc3)n2)cc1 [Example 38],0.17 µM
7,COc1ccc(-c2cc(NCC3CCN(CC4CNC4)C3)cc(-c3ccc(N4CCN(C)CC4)cc3)n2)cc1 (stereo not shown) [Example 34],0.14 µM
8,CN(CCCN)CCCNc1cc(-c2ccc(N3CCNCC3)cc2)nc(-c2ccc3c(c2)CCNC3)c1 [Example 28],0.11 µM
9,COc1ccc(-c2cc(NCCCN(C)C)cc(-c3cccc(OCCN4CCCC4)c3)n2)cc1 [Example 91],0.16 µM
10,CNc1ccc(-c2cc(NCCCN(C)CCCN)cc(-c3ccc(OC)cc3)n2)cc1 [Example 19],0.08 µM
11,"COc1ccc(-c2cc(NCCCN(C)C)cc(-c3cccc(OCCCN(C)C)c3)n2)cc1 [Example 89, 2-(3-(3-(dimethylamino)propoxy)phenyl)-N-(3-(dimethylamino)propyl)-6-(4-methoxyphenyl)pyridin-4-amine]",0.17 µM
12,"COc1ccc(-c2cc(NCCCN(C)CCCN)cc(-c3cnn(C4CCN(C)CC4)c3)n2)cc1 [Example 13, N-{3-[(3-aminopropyl)(methyl)amino]propyl}-2-(4-methoxyphenyl)-6-[1-(1-methylpiperidin-4-yl)-1H-pyrazol-4-yl]pyridin-4-amine]",0.065 µM
13,"COc1ccc(-c2cc(N(C)CCCN(C)C)cc(-c3ccc(N4CCN(C)CC4)cc3)n2)cc1 [Example 42, N-(3-(dimethylamino)propyl)-2-(4-methoxyphenyl)-N-methyl-6-(4-(4-methylpiperazin-1-yl)phenyl)pyridin-4-amine]",0.46 µM
14,COc1ccc(-c2cc(N[C@H]3CC[C@H](N)CC3)cc(-c3cccc(OCCN4CCCC4)c3)n2)cc1 [Example 90],0.09 µM
15,COc1ccc(-c2cc(NCC3CCN(CC4CNC4)CC3)cc(-c3ccc(N4CCN(C)CC4)cc3)n2)cc1 [Example 29],0.11 µM
16,CN(CCCN)CCCNc1cc(-c2ccc(N3CCNCC3)cc2)nc(-c2ccc(N3CCNCC3)cc2)c1 [Example 1],0.02 µM
17,COc1ccc(-c2cc(/N=N\C3CCNCC3)cc(-c3ccc(N4CCNCC4)cc3)n2)cc1 [Example 64],1.48 µM
18,CN(C)CCCNc1cc(-c2ccc(OCCn3cccn3)cc2)nc2ccccc12 [Example 84],0.55 µM
19,COc1ccc(-c2cc(N(C)C3CCNCC3)cc(-c3ccc(N4CCNCC4)cc3)n2)cc1 [Example 41],0.33 µM
20,COc1ccc(-c2cc(NCCCNC3CC(N)C3)cc(-c3ccc(N4CCNCC4)cc3)n2)cc1 (stereo not shown) [Example 6],0.04 µM

row,Compound,IC50
1,"COc1ccc(-c2cc(NCCCN(C)CCCN)cc(-c3ccc(N4CCNCC4)cc3)n2)cc1 [Example 2, N-{3-[(3-aminopropyl)(methyl)amino]propyl}-2-(4-methoxyphenyl)-6-[4-(piperazin-1-yl)phenyl]pyridin-4-amine]",0.03 µM
2,COc1ccc(-c2cc(NCCCN(C)CCCN)cc(-c3ccc(N4CCN(C)C(F)C4)cc3)n2)cc1 (stereo not shown) [Example 76],0.23 µM
3,CCOC(=O)N1CCC(Nc2cc(-c3ccc(OC)cc3)nc(-c3ccc(N4CCNCC4)cc3)c2)CC1 [Example 50],9.49 µM
4,COc1ccc(-c2cc(NCCCN3CCC4NCCC43)cc(-c3ccc(N4CCNCC4)cc3)n2)cc1 (stereo not shown) [Example 65],1.32 µM
5,"COc1ccc(-c2cc(NC3CCN(CCCN)CC3)cc(-c3ccc(N4CCN(C)CC4)cc3)n2)cc1 [Example 5, N-(1-(3-aminopropyl)piperidin-4-yl)-2-(4-methoxyphenyl)-6-(4-(4-methylpiperazin-1-yl)phenyl)pyridin-4-amine]",0.04 µM
6,COc1ccc(-c2cc(NCCN(C)CCN)cc(-c3ccc(N4CCNCC4)cc3)n2)cc1 [Example 70],0.63 µM
7,"COc1ccc(-c2cc(NCCOCCN)cc(-c3ccc(N4CCNCC4)cc3)n2)cc1 [Example 73, N-(2-(2-aminoethoxy)ethyl)-2-(4-methoxyphenyl)-6-(4-(piperazin-1-yl)phenyl)pyridin-4-amine]",0.49 µM
8,COc1ccc(-c2cc(NC3CCN(CC4CCNC4)CC3)cc(-c3ccc(N4CCNCC4)cc3)n2)cc1 (stereo not shown) [Example 30],0.12 µM
9,COc1ccc(-c2cc(NC3CCNCC3(F)F)cc(-c3ccc(N4CCN(C)CC4)cc3)n2)cc1 (stereo not shown) [Example 60],11 µM
10,COc1ccc(-c2cc(NCCCN(C)C)cc(-c3ccc(OCCCN(C)C)nc3)n2)cc1 [Example 81],0.72 µM
11,COc1ccc(-c2cc(NCCN3CCNCC3)cc(-c3ccc(N4CCNCC4)cc3)n2)cc1 [Example 74],0.49 µM
12,"COc1ccc(-c2cc(N[C@H]3CC[C@H](N)CC3)cc(-c3cccc(OCCN(C)C)c3)n2)cc1 [Example 93, trans-N1-(2-(3-(2-(dimethylamino)ethoxy)phenyl)-6-(4-methoxyphenyl)pyridin-4-yl)cyclohexane-1,4-diamine]",0.11 µM
13,COc1ccc(-c2cc(NC3(CCN)CC3)cc(-c3ccc(N4CCNCC4)cc3)n2)cc1 [Example 54],3.56 µM
14,Ethyl 4-(2-(4-methoxyphenyl)-6-(4-(piperazin-1-yl)phenyl)pyridin-4-ylamino)piperidine-1-carboxylate [Example 49],5.78 µM
15,COc1cc2c(NCCCN(C)C)ccnc2cc1OCCN1CCCC1 [Example 83],0.19 µM
16,COc1ccc(-c2cc(NCCCN)cc(-n3cc4c(n3)CNC4)n2)cc1 [Example 43],0.46 µM
17,COc1ccc(-c2cc(N[C@@H]3CCNC[C@@H]3OC)cc(-c3ccc(N4CCN(C)CC4)cc3)n2)cc1 [Example 75],0.36 µM
18,6-(4-(2-(pyrrolidin-1-yl)ethoxy)phenyl)-N-(piperidin-4-yl)-1H-indazol-3-amine [Example 95],2.4 µM
19,CNS(=O)(=O)c1ccc(-c2cc(NCCCN(C)CCCN)cc(-c3ccc(OC)cc3)n2)cc1 [Example 53],4.17 µM

# Same assay, conditions: same alpha-screen assay using bt-TAR32, side-by-side, three independent assays; average
row,Compound,increase in potency versus Compound I (average)
1,COc1ccc(-c2cc(NC3CCN(C4CCC(N)CC4)CC3)cc(-c3ccc(N4CCNCC4)cc3)n2)cc1 (stereo not shown) [Example 3],14 X

# Same assay, conditions: same alpha-screen assay using bt-TAR32, side-by-side, three independent assays; range
row,Compound,increase in potency versus Compound I
1,COc1ccc(-c2cc(NC3CCN(C4CCC(N)CC4)CC3)cc(-c3ccc(N4CCNCC4)cc3)n2)cc1 (stereo not shown) [Example 3],11-18 X

# From US20240148722A1, “SMALL MOLECULES THAT BIND TO TDP-43 FOR THE TREATMENT OF ALS AND RELATED DISORDERS” (Biohaven Therapeutics Ltd., priority 2021, published 2024)
